Tests used:
[1] = molecular target: T1, Type-2 angiotensin II receptor (Rattus norvegicus, UniProt P35351); experiment: In vitro antagonist activity against angiotensin II type 2 (AT2) receptor in rat midbrain using [125I]- Sar, Ile AII.; type: functional
T1 sequence (P35351 whole entry): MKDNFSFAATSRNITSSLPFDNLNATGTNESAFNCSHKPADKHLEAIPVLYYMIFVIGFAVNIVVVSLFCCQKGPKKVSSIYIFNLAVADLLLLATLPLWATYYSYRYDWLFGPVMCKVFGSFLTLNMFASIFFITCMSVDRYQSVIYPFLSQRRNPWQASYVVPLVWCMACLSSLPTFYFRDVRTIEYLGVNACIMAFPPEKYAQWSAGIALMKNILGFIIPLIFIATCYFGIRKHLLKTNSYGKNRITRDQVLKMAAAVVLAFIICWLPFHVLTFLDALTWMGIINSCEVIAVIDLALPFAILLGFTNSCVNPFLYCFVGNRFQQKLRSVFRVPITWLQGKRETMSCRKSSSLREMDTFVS

[2] = molecular target: T2, Type-1 angiotensin II receptor (Oryctolagus cuniculus, UniProt P34976); experiment: In vitro antagonist activity against angiotensin II receptor type 1 in rabbit aorta using [125I]-Sar, Ile AII.; type: functional, tissue-based
T2 sequence (P34976 whole entry): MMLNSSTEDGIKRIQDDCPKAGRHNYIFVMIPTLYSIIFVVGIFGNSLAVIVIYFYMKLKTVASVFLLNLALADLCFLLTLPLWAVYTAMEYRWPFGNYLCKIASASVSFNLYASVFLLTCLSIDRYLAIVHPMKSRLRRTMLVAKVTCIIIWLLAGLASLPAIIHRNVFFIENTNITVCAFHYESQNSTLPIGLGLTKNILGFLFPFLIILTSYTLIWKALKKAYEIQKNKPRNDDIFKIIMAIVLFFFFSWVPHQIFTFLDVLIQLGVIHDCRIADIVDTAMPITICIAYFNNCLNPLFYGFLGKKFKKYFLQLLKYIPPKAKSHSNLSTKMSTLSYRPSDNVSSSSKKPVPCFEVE

IC50 [1] [nM]	IC50 [2] [nM]	Structure (SMILES)
200	0.9	CCc1nc2c(C)cc(C)nc2n1Cc1ccc(N(CC)C(C(=O)NS(=O)(=O)c2ccccc2)c2ccccc2)cc1 (stereo not given)
21000	200	CCc1nc2c(C)cc(C)nc2n1Cc1ccc(NC(C(=O)O)c2ccccc2)cc1 (stereo not given)
3400	8.2	CCc1nc2c(C)cc(C)nc2n1Cc1ccc(N(C)C(C(=O)O)c2ccccc2)cc1 (stereo not given)
490	5.3	C=CCN(c1ccc(Cn2c(CC)nc3c(C)cc(C)nc32)cc1)C(C(=O)O)c1ccccc1 (stereo not given)
6000	860	CCc1nc2c(C)cc(C)nc2n1Cc1ccc(NC(C(=O)O)c2cc(C(F)(F)F)cc(C(F)(F)F)c2)cc1 (stereo not given)
11000	70	CCc1nc2c(C)cc(C)nc2n1Cc1ccc(N(C)C(C(=O)O)c2ccccc2)c(C)c1 (stereo not given)
19000	28	CCc1nc2c(C)cc(C)nc2n1Cc1ccc(NC(C(=O)O)c2ccccc2C)c(C)c1 (stereo not given)
660	94	CCCCN(c1ccc(Cn2c(CC)nc3c(C)cc(C)nc32)cc1)C(C(=O)O)c1ccccc1 (stereo not given)
> 30000	15	CCc1nc2c(C)cc(C)nc2n1Cc1ccc(N(C)C(c2ccccc2)c2nnn[nH]2)cc1 (stereo not given)
420	0.8	CCCN(c1ccc(Cn2c(CC)nc3c(C)cc(C)nc32)cc1)C(C(=O)NS(=O)(=O)c1ccccc1)c1ccccc1 (stereo not given)
> 10000	–	CCc1nc2c(C)cc(C)nc2n1Cc1ccc(-c2ccccc2-c2nnn[nH]2)cc1 [L-158809]
12000	1900	CCc1nc2c(C)cc(C)nc2n1Cc1ccc(N(CC)C(C(=O)O)c2cc(C(F)(F)F)cc(C(F)(F)F)c2)cc1 (stereo not given)
8800	200	C=CCN(c1ccc(Cn2c(CC)nc3c(C)cc(C)nc32)cc1)C(C(=O)O)c1cc(F)ccc1F (stereo not given)
1600	80	CCc1nc2c(C)cc(C)nc2n1Cc1ccc(N(C(C)CC)C(C(=O)O)c2ccccc2)cc1 (stereo not given)
2900	1	C=CCN(c1ccc(Cn2c(CC)nc3c(C)cc(C)nc32)cc1)C(C(=O)NS(=O)(=O)c1ccccc1)c1ccccc1 (stereo not given)
2200	31	CCc1nc2c(C)cc(C)nc2n1Cc1ccc(N(CC2CC2)C(C(=O)O)c2ccccc2)cc1 (stereo not given)
560	5.3	CCCN(c1ccc(Cn2c(CC)nc3c(C)cc(C)nc32)cc1)C(C(=O)O)c1ccccc1 (stereo not given)
4300	34	C=CCN(c1ccc(Cn2c(CC)nc3c(C)cc(C)nc32)cc1C)C(C(=O)O)c1ccccc1 (stereo not given)
> 10000	> 100	CCc1nc2c(C)cc(C)nc2n1Cc1ccc(N(C)C(C(=O)O)c2cc(F)ccc2F)cc1 (stereo not given)
> 300	22	CCc1nc2c(C)cc(C)nc2n1Cc1ccc(N(CC(C)C)C(C(=O)O)c2ccccc2)cc1 (stereo not given)
> 10000	380	CCc1nc2c(C)cc(C)nc2n1Cc1ccc(N(CC)C(C(=O)O)c2ccccc2Cl)cc1 (stereo not given)
11000	100	CCc1nc2c(C)cc(C)nc2n1Cc1ccc(NC(C(=O)O)c2ccccc2)c(C)c1 (stereo not given)
8600	10	CCc1nc2c(C)cc(C)nc2n1Cc1ccc(N(CC)C(C(=O)O)c2ccccc2)c(C)c1 (stereo not given)
740	4	CCc1nc2c(C)cc(C)nc2n1Cc1ccc(N(CC)C(C(=O)O)c2ccccc2)cc1 (stereo not given)
11000	82	C=CCN(c1ccc(Cn2c(CC)nc3c(C)cc(C)nc32)cc1C)C(C(=O)O)c1ccccc1C (stereo not given)
4800	12	CCCN(c1ccc(Cn2c(CC)nc3c(C)cc(C)nc32)cc1C)C(C(=O)O)c1ccccc1 (stereo not given)
2100	66	CCc1nc2c(C)cc(C)nc2n1Cc1ccc(N(CC)C(C(=O)O)c2cccc(C)c2)cc1 (stereo not given)
> 10000	88	CCc1nc2c(C)cc(C)nc2n1Cc1ccc(N(CC)C(C(=O)O)c2cc(F)ccc2F)cc1 (stereo not given)

Source: ChEMBL document CHEMBL1126574, “Non-peptide angiotensin II receptor antagonists. 2. Design, synthesis, and biological activity of N-substituted (phenylamino)phenylacetic acids and acyl sulfonamides” (J Med Chem, 1993)
